Patent US20240025883A1, “PYRIMIDIN-2-YL SULFONAMIDE DERIVATIVES” (Hoffmann-La Roche Inc., priority 2021, published 2024)

target: human GPR17 short isoform (Homo sapiens (Human), UniProt Q13304); assay: GPR17 cAMP assay (hGPR17 cAMP, antagonist mode against EC80 of MDL29,951); assay type: cell-based; details: CHO-K1 cells stably expressing human GPR17 short isoform; EC80 of agonist MDL29,951; forskolin 15 μM
Description: GPR17 cAMP Assay Protocol:
CHO-K1 cells stably expressing vector containing untagged human GPR17 short isoform (Roche) were cultured at 37° C./5% CO2 in DMEM (Dulbecco's Modified Eagle Medium):F-12 (1:1) supplemented with 10% foetal bovine serum and 400 μg/ml Geneticin.
Changes in intracellular cyclic adenosine monophosphate (cAMP) levels were quantified using the Nano-TRF Detection Assay kit (Roche Diagnostics, Cat. No. 05214386001). This assay allows for direct cAMP quantification in a homogeneous solution, cAMP is detected based on time-resolved fluorescence energy transfer (TR-FRET) and competitive binding of ruthenylated cAMP and endogenous cAMP to an anti-cAMP monoclonal antibody labeled with AlexaFluor-700. The Ruthenium complex serves as the FRET donor and transfers energy to AlexaFluor-700. The FRET signal is inversely proportional to the cAMP concentration.
CHO-GPR17S cells were detached with Accutase and resuspended in assay buffer consisting of Hank's Balanced Salt Solution (HBSS), 10 mM HEPES (4-(2-hydroxyethyl) piperazine-1-ethanesulfonic acid solution) and 0.1% bovine serum albumin (pH 7.4). The cells were seeded in black 384-well plates (Corning) at a density of 10,000 cells/20 μl assay buffer until the addition of compounds.
Test antagonist compounds were serially diluted in dimethyl sulfoxide (DMSO) and spotted in 384-well plates. The compounds were then diluted in HBSS buffer supplemented with an EC80 concentration of MDL29,951 (3-(2-Carboxy-4,6-dichloroindol-3-yl)propionic acid) (GPR17 agonist) plus 3-Isobutyl-1-methylxanthine (IBMX) (0.5 mM final concentration) and added to the cells at room temperature. Forskolin (15 μM final concentration) was added 5 minutes after the test compounds and the cells were incubated at room temperature for 30 minutes. The assay was stopped by adding cAMP detection mix (containing detergents for cell lysis) for 90 minutes at room temperature.
Cellular cAMP was measured using a Paradigm reader (Molecular Devices). The raw data was used to calculate the FRET signal based on the assay's P-factor as per cAMP kit instructions. The data was normalized to the maximal activity of a reference antagonist and dose response curves were fitted to the percent activity of the test compounds using a sigmoidal dose response model (Genedata Screener).

human GPR17 short isoform, sequence (Q13304 29-367): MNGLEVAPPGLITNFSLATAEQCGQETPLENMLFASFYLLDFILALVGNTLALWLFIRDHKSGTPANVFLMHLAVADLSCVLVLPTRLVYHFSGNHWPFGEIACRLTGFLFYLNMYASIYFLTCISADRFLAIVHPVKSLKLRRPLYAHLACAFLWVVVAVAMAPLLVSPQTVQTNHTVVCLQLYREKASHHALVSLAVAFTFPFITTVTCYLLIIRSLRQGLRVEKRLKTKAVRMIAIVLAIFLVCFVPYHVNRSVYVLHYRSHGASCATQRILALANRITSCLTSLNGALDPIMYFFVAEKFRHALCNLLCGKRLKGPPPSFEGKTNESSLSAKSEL

SMILES | IC50
COc1nc(NS(=O)(=O)c2c[nH]c3cc(Br)ccc23)ncc1CCC#N [Example 89, 6-bromo-N-[5-(2-cyanoethyl)-4-methoxy-pyrimidin-2-yl]-1H-indole-3-sulfonamide] | 212 nM
COc1nc(NS(=O)(=O)c2c[nH]c3cc(Br)ccc23)nc(OC)c1OCCF [Example 91, 6-bromo-N-[5-(2-fluoroethoxy)-4,6-dimethoxy-pyrimidin-2-yl]-1H-indole-3-sulfonamide] | 30 nM
COc1nc(NS(=O)(=O)c2c[nH]c3cc(Br)ccc23)nc(OC)c1CCC#N [Example 93, 6-bromo-N-[5-(2-cyanoethyl)-4,6-dimethoxy-pyrimidin-2-yl]-1H-indole-3-sulfonamide] | 10 nM
COc1nc(NS(=O)(=O)c2c[nH]c3nc(C(F)F)ccc23)nc(OC)c1OC(F)F [Example 94, N-[5-(difluoromethoxy)-4,6-dimethoxy-pyrimidin-2-yl]-6-(difluoromethyl)-1H-pyrrolo[2,3-b]pyridine-3-sulfonamide] | 76 nM
COc1nc(NS(=O)(=O)c2c[nH]c3nc(C(F)F)ccc23)nc(OC)c1CCC(F)F [Example 98, 6-(difluoromethyl)-N-[5-(3,3-difluoropropyl)-4,6-dimethoxy-pyrimidin-2-yl]-1H-pyrrolo[2,3-b]pyridine-3-sulfonamide] | 25 nM
COc1nc(NS(=O)(=O)c2c[nH]c3nc(C(F)F)ccc23)nc(OC)c1OCC#N [Example 99, N-[5-(cyanomethoxy)-4,6-dimethoxy-pyrimidin-2-yl]-6-(difluoromethyl)-1H-pyrrolo[2,3-b]pyridine-3-sulfonamide] | 102 nM
COc1nc(NS(=O)(=O)c2c[nH]c3cc(C(F)F)ccc23)ncc1OC(F)(F)CF [Example 100, 6-(difluoromethyl)-N-[4-methoxy-5-(1,1,2-trifluoroethoxy)pyrimidin-2-yl]-1H-indole-3-sulfonamide] | 160 nM
COc1nc(NS(=O)(=O)c2c[nH]c3cc(C(F)F)ccc23)nc(OC)c1CCC#N [Example 103, N-[5-(2-cyanoethyl)-4,6-dimethoxy-pyrimidin-2-yl]-6-(difluoromethyl)-1H-indole-3-sulfonamide] | 11 nM
COc1nc(NS(=O)(=O)c2c[nH]c3cc(OC(F)F)ccc23)ncc1CC(F)F [Example 104, N-[5-(2,2-difluoroethyl)-4-methoxy-pyrimidin-2-yl]-6-(difluoromethoxy)-1H-indole-3-sulfonamide] | 209 nM
COc1nc(NS(=O)(=O)c2c[nH]c3c(SC(F)F)c(Cl)ccc23)ncc1CCC#N [Example 105, 6-chloro-N-[5-(2-cyanoethyl)-4-methoxy-pyrimidin-2-yl]-7-(difluoromethylthio)-1H-indole-3-sulfonamide] | 14 nM
COc1nc(NS(=O)(=O)c2c[nH]c3c(SC(F)F)c(Cl)ccc23)nc(OC)c1OCCF [Example 106, 6-chloro-7-(difluoromethylthio)-N-[5-(2-fluoroethoxy)-4,6-dimethoxy-pyrimidin-2-yl]-1H-indole-3-sulfonamide] | 7 nM
COc1nc(NS(=O)(=O)c2c[nH]c3c(SC(F)F)c(Cl)ccc23)nc(OC)c1CCC#N [Example 107, 6-chloro-N-[5-(2-cyanoethyl)-4,6-dimethoxy-pyrimidin-2-yl]-7-(difluoromethylthio)-1H-indole-3-sulfonamide] | 12 nM
COc1nc(NS(=O)(=O)c2c[nH]c3c(Cl)cccc23)ncc1CC(F)F [Example 108, 7-chloro-N-[5-(2,2-difluoroethyl)-4-methoxy-pyrimidin-2-yl]-1H-indole-3-sulfonamide] | 642 nM
COc1nc(NS(=O)(=O)c2c[nH]c3nc(Br)ccc23)nc(OC)c1OCCF [Example 109, 6-bromo-N-[5-(2-fluoroethoxy)-4,6-dimethoxy-pyrimidin-2-yl]-1H-pyrrolo[2,3-b]pyridine-3-sulfonamide] | 36 nM
COc1nc(NS(=O)(=O)c2c[nH]c3nc(Br)ccc23)nc(OC)c1OC(F)(F)CF [Example 110, 6-bromo-N-[4,6-dimethoxy-5-(1,1,2-trifluoroethoxy)pyrimidin-2-yl]-1H-pyrrolo[2,3-b]pyridine-3-sulfonamide] | 25 nM
COc1nc(NS(=O)(=O)c2c[nH]c3nc(Br)ccc23)nc(OC)c1CCC(F)F [Example 112, 6-bromo-N-[5-(3,3-difluoropropyl)-4,6-dimethoxy-pyrimidin-2-yl]-1H-pyrrolo[2,3-b]pyridine-3-sulfonamide] | 16 nM
COc1nc(NS(=O)(=O)c2c[nH]c3nc(Br)ccc23)nc(OC)c1CCC#N [Example 113, 6-bromo-N-[5-(2-cyanoethyl)-4,6-dimethoxy-pyrimidin-2-yl]-1H-pyrrolo[2,3-b]pyridine-3-sulfonamide] | 21 nM
COc1nc(NS(=O)(=O)c2c[nH]c3nc(Br)ccc23)nc(OC)c1OCC#N [Example 114, 6-bromo-N-[5-(cyanomethoxy)-4,6-dimethoxy-pyrimidin-2-yl]-1H-pyrrolo[2,3-b]pyridine-3-sulfonamide] | 45 nM
COc1nc(NS(=O)(=O)c2c[nH]c3c(N(C)C)c(Cl)ccc23)nc(OC)c1CC(F)F [Example 115, 6-chloro-N-[5-(2,2-difluoroethyl)-4,6-dimethoxy-pyrimidin-2-yl]-7-(dimethylamino)-1H-indole-3-sulfonamide] | 26 nM

Results, then the molecule that gave them:

IC50 | SMILES
244 nM | COc1nc(NS(=O)(=O)c2c[nH]c3cc(Cl)ccc23)nc(C)c1CC(F)F [Example 78, 6-chloro-N-[5-(2,2-difluoroethyl)-4-methoxy-6-methyl-pyrimidin-2-yl]-1H-indole-3-sulfonamide]
128 nM | COc1nc(NS(=O)(=O)c2c[nH]c3cc(Cl)ccc23)nc(C2CC2)c1CC(F)F [Example 79, 6-chloro-N-[4-cyclopropyl-5-(2,2-difluoroethyl)-6-methoxy-pyrimidin-2-yl]-1H-indole-3-sulfonamide]
20800 nM | COc1nc(NS(=O)(=O)c2c[nH]c3cc(Cl)ccc23)nc(CC2CC2)c1Br [Example 80, N-[5-bromo-4-(cyclopropylmethyl)-6-methoxy-pyrimidin-2-yl]-6-chloro-1H-indole-3-sulfonamide]
5700 nM | COCc1nc(NS(=O)(=O)c2c[nH]c3cc(Cl)ccc23)nc(OC)c1Br [Example 81, N-[5-bromo-4-methoxy-6-(methoxymethyl)pyrimidin-2-yl]-6-chloro-1H-indole-3-sulfonamide]
752 nM | COc1nc(NS(=O)(=O)c2c[nH]c3cc(Cl)ccc23)nc(C(C)(F)F)c1Br [Example 82, N-[5-bromo-4-(1,1-difluoroethyl)-6-methoxy-pyrimidin-2-yl]-6-chloro-1H-indole-3-sulfonamide]
78 nM | COc1nc(NS(=O)(=O)c2c[nH]c3cc(Cl)ccc23)nc(OCF)c1Br [Example 83, N-[5-bromo-4-(fluoromethoxy)-6-methoxy-pyrimidin-2-yl]-6-chloro-1H-indole-3-sulfonamide]
521 nM | COc1nc(NS(=O)(=O)c2c[nH]c3cc(Cl)ccc23)nc(C(F)F)c1Br [Example 84, N-[5-bromo-4-(difluoromethyl)-6-methoxy-pyrimidin-2-yl]-6-chloro-1H-indole-3-sulfonamide]
623 nM | COc1nc(NS(=O)(=O)c2c[nH]c3cc(Cl)ccc23)nc(CC#N)c1Br [Example 85, N-[5-bromo-4-(cyanomethyl)-6-methoxy-pyrimidin-2-yl]-6-chloro-1H-indole-3-sulfonamide]
117 nM | COc1nc(NS(=O)(=O)c2c[nH]c3cc(Cl)ccc23)nc(SC)c1OC(F)F [Example 86, 6-chloro-N-[5-(difluoromethoxy)-4-methoxy-6-methylsulfanyl-pyrimidin-2-yl]-1H-indole-3-sulfonamide]
33 nM | COc1nc(NS(=O)(=O)c2c[nH]c3cc(Br)ccc23)ncc1CC(F)F [Example 88, 6-bromo-N-[5-(2,2-difluoroethyl)-4-methoxy-pyrimidin-2-yl]-1H-indole-3-sulfonamide]
29 nM | COc1nc(NS(=O)(=O)c2c[nH]c3cc(Br)ccc23)nc(OC)c1OC(F)F [Example 90, 6-bromo-N-[5-(difluoromethoxy)-4,6-dimethoxy-pyrimidin-2-yl]-1H-indole-3-sulfonamide]
18 nM | COc1nc(NS(=O)(=O)c2c[nH]c3cc(Br)ccc23)nc(OC)c1OCC(F)F [Example 92, 6-bromo-N-[5-(2,2-difluoroethoxy)-4,6-dimethoxy-pyrimidin-2-yl]-1H-indole-3-sulfonamide]
13 nM | COc1nc(NS(=O)(=O)c2c[nH]c3nc(Br)ccc23)nc(OC)c1CC(F)F [Example 111, 6-bromo-N-[5-(2,2-difluoroethyl)-4,6-dimethoxy-pyrimidin-2-yl]-1H-pyrrolo[2,3-b]pyridine-3-sulfonamide]
